Experimental data published in ChEMBL document CHEMBL6134887, “Linker and Head-Group Exploration of Anti-MRSA Triaromatic Pleuromutilins” (J Med Chem, 2025).
In brackets after ≈: the same amount, converted by molar mass. Blank lines part the entries; values can stand above or below the compound they belong to.

Assays:
[1] = Metabolic stability in mouse liver assessed as intrinsic clearance at 1 uM measured up to 60 mins by LC-MS/MS analysis; type: ADME, tissue-based; conditions: read-out: CLH
[2] = Metabolic stability in human liver assessed as intrinsic clearance at 1 uM measured up to 30 mins by LC-MS/MS analysis; type: ADME, tissue-based; conditions: read-out: CLH
[3] = Metabolic stability in human liver microsomes assessed as half-life at 1 uM measured up to 30 mins by LC-MS/MS analysis; type: ADME, Microsome
[4] = Metabolic stability in mouse liver microsomes assessed as half-life at 1 uM measured up to 60 mins by LC-MS/MS analysis; type: ADME, Microsome
Staphylococcus aureus [5] = assay: Antibacterial activity against methicillin resistant Staphylococcus aureus USA300 FPR3757 assessed as inhibition of bacterial growth incubated for 20 to 24 hrs by microbroth serial dilution method; type: functional; conditions: time 20-24 hrs, read-out: MIC100
Staphylococcus aureus [6] = assay: Antibacterial activity against methicillin susceptible Staphylococcus aureus ATCC 29213 assessed as inhibition of bacterial growth incubated for 20 to 24 hrs by microbroth serial dilution method; type: functional; conditions: time 20-24 hrs, read-out: MIC100
Staphylococcus aureus [7] = assay: Antibacterial activity against methicillin susceptible Staphylococcus aureus ATCC 25923 assessed as inhibition of bacterial growth incubated for 20 to 24 hrs by microbroth serial dilution method; type: functional; conditions: time 20-24 hrs, read-out: MIC100
Caco-2 = assay: Cytotoxicity against human Caco-2 cells assessed as reduction in cell viability at 1 to 10 uM measured after 1 to 8 days by Celltiter-Glo reagent based assay; type: toxicity; conditions: caco-2, 10 µM, dose lower 1 µM, time lower 1 day, dose upper 10 µM, time upper 8 day
Enterococcus faecium [8] = assay: Antibacterial activity against vancomycin, ampicillin and ciprofloxacin resistant Enterococcus faecium clinical isolate 1 assessed as inhibition of bacterial growth incubated for 20 to 24 hrs by microbroth serial dilution method; type: functional; conditions: time 20-24 hrs, read-out: MIC100
Staphylococcus aureus [9] = assay: Antibacterial activity against methicillin resistant Staphylococcus aureus clinical isolate 933010 assessed as inhibition of bacterial growth incubated for 20 to 24 hrs by microbroth serial dilution method; type: functional; conditions: time 20-24 hrs, read-out: MIC100
Staphylococcus aureus [10] = assay: Antibacterial activity against mupirocin resistant Staphylococcus aureus 4828 assessed as inhibition of bacterial growth incubated for 20 to 24 hrs by microbroth serial dilution method; type: functional; conditions: time 20-24 hrs, read-out: MIC100
Streptococcus pneumoniae = assay: Antibacterial activity against Streptococcus pneumoniae assessed as inhibition of bacterial growth incubated for 20 to 24 hrs by microbroth serial dilution method; type: functional; conditions: time 20-24 hrs, read-out: MIC100
DU-145 = assay: Cytotoxicity against human DU-145 cells assessed as reduction in cell viability at 1 to 10 uM measured after 3 hrs by Celltiter-Glo reagent based assay; type: toxicity; conditions: du-145, 3 h, dose 1-10 µM
Staphylococcus aureus [11] = assay: Antibacterial activity against methicillin resistant Staphylococcus aureus clinical isolate 55508 assessed as inhibition of bacterial growth incubated for 20 to 24 hrs by microbroth serial dilution method; type: functional; conditions: time 20-24 hrs, read-out: MIC100
MDCK-MDR1 = assay: Cytotoxicity against MDCKII-MDR1 cells assessed as reduction in cell viability at 1 to 10 uM measured after 3 hrs by Celltiter-Glo reagent based assay; type: toxicity, Canis lupus familiaris; conditions: dog, mdck-mdr1, 3 h, dose 1-10 µM
Staphylococcus aureus [12] = assay: Antibacterial activity against methicillin resistant Staphylococcus aureus clinical isolate 52518 assessed as inhibition of bacterial growth incubated for 20 to 24 hrs by microbroth serial dilution method; type: functional; conditions: time 20-24 hrs, read-out: MIC100
Enterococcus faecalis = assay: Antibacterial activity against Enterococcus faecalis assessed as inhibition of bacterial growth incubated for 20 to 24 hrs by microbroth serial dilution method; type: functional; conditions: time 20-24 hrs, read-out: MIC100
Enterococcus faecium [13] = assay: Antibacterial activity against vancomycin, ampicillin and ciprofloxacin resistant Enterococcus faecium clinical isolate 5 assessed as inhibition of bacterial growth incubated for 20 to 24 hrs by microbroth serial dilution method; type: functional; conditions: time 20-24 hrs, read-out: MIC100

Compound: C=C[C@]1(C)C[C@@H](OC(=O)Cn2cc(-c3ccc(C(=O)c4ccc5c(N)ncnn45)cn3)nn2)[C@]2(C)[C@H](C)CC[C@]3(CCC(=O)[C@H]32)[C@@H](C)[C@@H]1O
CLint scaled at 1 µM [1]: > 600 L/h/kg
CLint scaled at 1 µM [2]: 221 L/h/kg
half-life at 1 µM [3]: 1.7 min
half-life at 1 µM [4]: 0.54 min
MIC (Staphylococcus aureus [5]): 0.06 µg/mL (≈ 0.09 µM)

CLint scaled at 1 µM [1]: 571 L/h/kg
MIC (Staphylococcus aureus [6]): 0.06 µg/mL (≈ 0.0918 µM)
half-life at 1 µM [4]: 0.58 min
MIC (Staphylococcus aureus [7]): 0.06 µg/mL (≈ 0.0918 µM)
Compound: C=C[C@]1(C)C[C@@H](OC(=O)Cn2cc(-c3ccc(Cn4cnc5c(N)ncnc54)nc3)nn2)[C@]2(C)[C@H](C)CC[C@]3(CCC(=O)[C@H]32)[C@@H](C)[C@@H]1O

Compound: C=C[C@]1(C)C[C@@H](OC(=O)Cn2cc(-c3cncc(C(=O)Nc4ccc(OC)nc4)c3)nn2)[C@]2(C)[C@H](C)CC[C@]3(CCC(=O)[C@H]32)[C@@H](C)[C@@H]1O
Activity (Caco-2): Non-toxic
MIC (Enterococcus faecium [8]): 0.12 µg/mL (≈ 0.183 µM)
MIC (Staphylococcus aureus [9]): 0.06 µg/mL (≈ 0.0914 µM)
MIC (Staphylococcus aureus [10]): 0.03 µg/mL (≈ 0.0457 µM)
MIC (Streptococcus pneumoniae): 0.5 µg/mL (≈ 0.761 µM)
Activity (DU-145): Non-toxic
MIC (Staphylococcus aureus [11]): 0.06 µg/mL (≈ 0.0914 µM)
Activity (MDCK-MDR1): Non-toxic
CLint scaled at 1 µM [1]: 566 L/h/kg
MIC (Staphylococcus aureus [6]): < 0.015 µg/mL
MIC (Staphylococcus aureus [12]): 0.06 µg/mL (≈ 0.0914 µM)
CLint scaled at 1 µM [2]: 164 L/h/kg
half-life at 1 µM [3]: 2.3 min
MIC (Enterococcus faecalis): 0.12 µg/mL (≈ 0.183 µM)
half-life at 1 µM [4]: 0.58 min
MIC (Staphylococcus aureus [5]): 0.03 µg/mL (≈ 0.0457 µM)
MIC (Enterococcus faecium [13]): 0.12 µg/mL (≈ 0.183 µM)
MIC (Staphylococcus aureus [7]): 0.12 µg/mL (≈ 0.183 µM)

Compound: C=C[C@]1(C)C[C@@H](OC(=O)Cn2cc(-c3cccc(NC(=O)c4ccc(OC)cc4)c3)nn2)[C@]2(C)[C@H](C)CC[C@]3(CCC(=O)[C@H]32)[C@@H](C)[C@@H]1O
MIC (Enterococcus faecium [8]): 0.12 µg/mL (≈ 0.183 µM)
MIC (Streptococcus pneumoniae): 0.25 µg/mL (≈ 0.382 µM)
MIC (Enterococcus faecalis): 0.5 µg/mL (≈ 0.764 µM)
MIC (Staphylococcus aureus [5]): 0.12 µg/mL (≈ 0.183 µM)
MIC (Enterococcus faecium [13]): 0.25 µg/mL (≈ 0.382 µM)

Compound: C=C[C@]1(C)C[C@@H](OC(=O)Cn2cc(-c3ccc(C(O)c4ccc5c(N)ncnn45)cn3)nn2)[C@]2(C)[C@H](C)CC[C@]3(CCC(=O)[C@H]32)[C@@H](C)[C@@H]1O (some centres not stated)
CLint scaled at 1 µM [1]: 500 L/h/kg
CLint scaled at 1 µM [2]: 275 L/h/kg
half-life at 1 µM [3]: 1.4 min
half-life at 1 µM [4]: 0.66 min
MIC (Staphylococcus aureus [5]): 0.03 µg/mL (≈ 0.0449 µM)

Compound: C=C[C@]1(C)C[C@@H](OC(=O)CSC(C)(C)CNC(=O)[C@H](N)C(C)C)[C@]2(C)[C@H](C)CC[C@]3(CCC(=O)[C@H]32)[C@@H](C)[C@@H]1O [VALNEMULIN]
MIC (Enterococcus faecium [8]): 0.015 µg/mL (≈ 0.0266 µM)
MIC (Staphylococcus aureus [9]): 0.25 µg/mL (≈ 0.443 µM)
MIC (Staphylococcus aureus [10]): 0.06 µg/mL (≈ 0.106 µM)
MIC (Streptococcus pneumoniae): 0.06 µg/mL (≈ 0.106 µM)
MIC (Staphylococcus aureus [11]): 0.12 µg/mL (≈ 0.212 µM)
CLint scaled at 1 µM [1]: 212 L/h/kg
MIC (Staphylococcus aureus [6]): 0.03 µg/mL (≈ 0.0531 µM)
MIC (Staphylococcus aureus [12]): 0.06 µg/mL (≈ 0.106 µM)
CLint scaled at 1 µM [2]: < 5.16 L/h/kg
half-life at 1 µM [3]: > 77.9 min
MIC (Enterococcus faecalis): 0.03 µg/mL (≈ 0.0531 µM)
half-life at 1 µM [4]: 0.78 min
MIC (Staphylococcus aureus [5]): 0.06 µg/mL (≈ 0.106 µM)
MIC (Enterococcus faecium [13]): 0.015 µg/mL (≈ 0.0266 µM)
MIC (Staphylococcus aureus [7]): 0.12 µg/mL (≈ 0.212 µM)

Compound: C=C[C@]1(C)C[C@@H](OC(=O)Cn2cc(-c3cncc(C(O)c4ccc5c(N)ncnn45)c3)nn2)[C@]2(C)[C@H](C)CC[C@]3(CCC(=O)[C@H]32)[C@@H](C)[C@@H]1O (some centres not stated)
CLint scaled at 1 µM [1]: 131 L/h/kg
CLint scaled at 1 µM [2]: 68.8 L/h/kg
half-life at 1 µM [3]: 5.4 min
half-life at 1 µM [4]: 2.5 min
MIC (Staphylococcus aureus [5]): 0.25 µg/mL (≈ 0.374 µM)

Compound: C=C[C@]1(C)C[C@@H](OC(=O)Cn2cc(-c3ccc(C(O)c4ccc5c(N)ncnn45)nc3)nn2)[C@]2(C)[C@H](C)CC[C@]3(CCC(=O)[C@H]32)[C@@H](C)[C@@H]1O (some centres not stated)
CLint scaled at 1 µM [1]: 447 L/h/kg
CLint scaled at 1 µM [2]: 284 L/h/kg
half-life at 1 µM [3]: 1.3 min
half-life at 1 µM [4]: 0.74 min
MIC (Staphylococcus aureus [5]): 0.03 µg/mL (≈ 0.0449 µM)

Compound: C=C[C@]1(C)C[C@@H](OC(=O)Cn2cc(-c3cncc(NC(=O)c4ccc(OC)cc4)c3)nn2)[C@]2(C)[C@H](C)CC[C@]3(CCC(=O)[C@H]32)[C@@H](C)[C@@H]1O
CLint scaled at 1 µM [1]: 591 L/h/kg
CLint scaled at 1 µM [2]: 219 L/h/kg
half-life at 1 µM [3]: 1.7 min
half-life at 1 µM [4]: 0.56 min
MIC (Staphylococcus aureus [5]): 0.06 µg/mL (≈ 0.0915 µM)
